Test results taken from the NIST ThermoML archive (doi:10.1016/j.jct.2016.09.005).
± gives the expanded uncertainty stated by the source.

Settings: 5500 kPa, Brillouin Light Scattering

CCCCCC [hexane]
speed of sound [m/s]
Settings | 300.09 K | 353.12 K | 403.17 K | 453.15 K | 503.13 K | 547.89 K | 578.22 K | 608.05 K | 636.04 K
Fluid (supercritical or subcritical phases) | – | – | – | – | – | 158.25 ± 2.4 | 154.04 ± 2.4 | 178.03 ± 2.7 | 194.98 ± 2.9
Liquid | 1111.2 ± 15 | 898.5 ± 12 | 705.9 ± 9.8 | 513 ± 7.2 | 323.7 ± 4.6 | – | – | – | –
